Measurements reported in ChEMBL document CHEMBL5512603, “Development of de-novo coronavirus 3-chymotrypsin-like protease (3CLpro) inhibitors since COVID-19 outbreak: A strategy to tackle challenges of persistent virus infection” (Eur J Med Chem, 2024).

Key:
[1] = AUC in ICR mouse measured at 150 mg/kg, po upto 24 hrs by LC-MS/MS analysis; assay type: ADME, organism-based; settings: in vivo
SARS-CoV-2 [2] = experiment: Antiviral activity against wild type SARS-CoV-2 infected in African green monkey VeroE6/TMPRSS2 cells at 1 MOI assessed as reduction in plaque formation measured after 48 hrs by measuring luciferase activity assay; assay type: functional, organism-based; settings: Severe acute respiratory syndrome coronavirus 2, VeroE6/TMPRSS2, 48 h
[3] = Half life in ICR mouse measured at 150 mg/kg, po upto 24 hrs by LC-MS/MS analysis; assay type: ADME, organism-based; settings: in vivo
SARS-CoV-2 [4] = experiment: Antiviral activity against SARS-CoV-2 B.1.1.7 (Alpha) infected in African green monkey VeroE6/TMPRSS2 cells at 1 MOI assessed as reduction in plaque formation measured after 48 hrs by measuring luciferase activity assay; assay type: functional, organism-based; settings: Severe acute respiratory syndrome coronavirus 2, B.1.1.7 (Alpha), VeroE6/TMPRSS2, 48 h
SARS-CoV-2 [5] = experiment: Antiviral activity against SARS-CoV-2 P.3 (Theta) infected in African green monkey VeroE6/TMPRSS2 cells at 1 MOI assessed as reduction in plaque formation measured after 48 hrs by measuring luciferase activity assay; assay type: functional, organism-based; settings: Severe acute respiratory syndrome coronavirus 2, P.3 (Theta), VeroE6/TMPRSS2, 48 h
[6] = Oral bioavailability in ICR mouse measured at 150 mg/kg upto 24 hrs by LC-MS/MS analysis; assay type: ADME, organism-based; settings: in vivo
SARS-CoV-2 [7] = experiment: Antiviral activity against SARS-CoV-2 B.1.617.1 (Kappa) infected in African green monkey VeroE6/TMPRSS2 cells at 1 MOI assessed as reduction in plaque formation measured after 48 hrs by measuring luciferase activity assay; assay type: functional, organism-based; settings: Severe acute respiratory syndrome coronavirus 2, B.1.617.1 (Kappa), VeroE6/TMPRSS2, 48 h
[8] = Half life in cynomolgus monkey at 5 mg/kg, po; assay type: ADME, organism-based, Macaca fascicularis; settings: in vivo
SARS-CoV-2 [9] = experiment: Antiviral activity against SARS-CoV-2 Delta infected in African green monkey Vero E6 cells assessed as inhibition of virus induced cytopathic effect by MTT assay; assay type: functional, organism-based; settings: Severe acute respiratory syndrome coronavirus 2, Delta, Vero C1008
SARS-CoV-2 [10] = experiment: Antiviral activity against SARS-CoV-2 Omicron BA.5 infected in African green monkey Vero E6 cells assessed as inhibition of virus induced cytopathic effect by MTT assay; assay type: functional, organism-based; settings: Severe acute respiratory syndrome coronavirus 2, Omicron BA.5, Vero C1008
SARS-CoV-2 [11] = experiment: Antiviral activity against SARS-CoV-2 Alpha infected in African green monkey Vero E6 cells assessed as inhibition of virus induced cytopathic effect by MTT assay; assay type: functional, organism-based; settings: Severe acute respiratory syndrome coronavirus 2, Alpha, Vero C1008
[12] = AUC (0 to last) in cynomolgus monkey at 5 mg/kg, po; assay type: ADME, organism-based, Macaca fascicularis; settings: in vivo
SARS-CoV-2 [13] = experiment: Antiviral activity against SARS-CoV-2 Beta infected in African green monkey Vero E6 cells assessed as inhibition of virus induced cytopathic effect by MTT assay; assay type: functional, organism-based; settings: Severe acute respiratory syndrome coronavirus 2, Beta, Vero C1008
[14] = Tmax in cynomolgus monkey at 5 mg/kg, po; assay type: ADME, organism-based, Macaca fascicularis; settings: in vivo
SARS-CoV-2 [15] = experiment: Antiviral activity against SARS-CoV-2 Omicron BA.1 infected in African green monkey Vero E6 cells assessed as inhibition of virus induced cytopathic effect by MTT assay; assay type: functional, organism-based; settings: Severe acute respiratory syndrome coronavirus 2, Omicron BA.1, Vero C1008
[16] = Cmax in cynomolgus monkey at 5 mg/kg, po; assay type: ADME, organism-based, Macaca fascicularis; settings: in vivo
SARS-CoV-2 [17] = experiment: Antiviral activity against wild type SARS-CoV-2 infected in African green monkey Vero E6 cells assessed as inhibition of virus induced cytopathic effect by MTT assay; assay type: functional, organism-based; settings: Severe acute respiratory syndrome coronavirus 2, Vero C1008
SARS-CoV-2 [18] = experiment: Antiviral activity against SARS-CoV-2 infected in African green monkey Vero E6 cells at 0.1 MOI assessed as inhibition of virus induced cytopathic effect by CCK8 assay; assay type: functional, organism-based; settings: Severe acute respiratory syndrome coronavirus 2, Vero C1008
[19] = biological target: T1, Replicase polyprotein 1ab (Severe acute respiratory syndrome coronavirus 2, UniProt P0DTD1); experiment: Inhibition of SARS-CoV-2 3CLp using fluorescent substrate by FRET assay
SARS-CoV-2 [20] = experiment: Antiviral activity against SARS-CoV-2 infected in Caco-2-ACE2 assessed as inhibition of viral replication; assay type: functional, organism-based; settings: Severe acute respiratory syndrome coronavirus 2, Caco-2-ACE2
[21] = biological target: T1, Replicase polyprotein 1ab; experiment: Inhibition of SARS-CoV-2 Main protease assessed as hydrolysis of quenched fluorogenic substrate
[22] = Cmax in po dosed rat; assay type: ADME, organism-based; settings: in vivo
[23] = Tmax in po dosed rat; assay type: ADME, organism-based; settings: in vivo
[24] = Oral bioavailability in rat; assay type: ADME, organism-based; settings: in vivo
[25] = Half life in po dosed rat; assay type: ADME, organism-based; settings: in vivo
[26] = AUClast in po dosed rat; assay type: ADME, organism-based; settings: in vivo

`[2H][C@](C(=O)N[C@@H](C)c1ccc(F)cc1)(c1cccnc1)N(C(=O)C(C)=O)c1ccc2c(c1)oc1ccccc12` showed an AUC at 24 h [1] of 29200 ng·h/mL, an EC50 (SARS-CoV-2 [2]) of 11.4 nM and a half-life [3] of 1.42 h. For the same compound, the EC50 (SARS-CoV-2 [4]) was 20.3 nM, the EC50 (SARS-CoV-2 [5]) was 23.7 nM and the bioavailability [6] was 92.9%. It also gave an EC50 (SARS-CoV-2 [7]) of 34.4 nM.
For `O=C(NC1CCCC1)C(=O)[C@H](C[C@@H]1CCNC1=O)NC(=O)[C@@H]1[C@H]2CCC[C@H]2CN1C(=O)[C@@H](NC(=O)C(F)(F)F)C1CCCCC1`, the half-life [8] was 14.9 h, the EC50 (SARS-CoV-2 [9]) was 97 nM and the EC50 (SARS-CoV-2 [10]) was 130 nM. The EC50 (SARS-CoV-2 [11]) was 130 nM, the AUC(0-t) [12] was 0.458 µM·h and the EC50 (SARS-CoV-2 [13]) was 277 nM. For the same compound, the Tmax [14] was 1.5 h, the EC50 (SARS-CoV-2 [15]) was 86 nM and the Cmax [16] was 102 nM. For the same compound, the EC50 (SARS-CoV-2 [17]) was 95 nM.
In the case of `O=C[C@@H](C[C@H]1CCNC1=O)NC(=O)[C@H]1[C@@H]2CCC[C@@H]2CN1C(=O)OCc1ccccc1`, the EC50 (SARS-CoV-2 [18]) is reported as 2560 nM, the IC50 [19] is reported as 51 nM and the EC50 (SARS-CoV-2 [20]) is reported as 5240 nM.
In the case of `Cc1c(Br)cncc1NC[C@@H](N)CC1CCCCC1`, the IC50 [21] is reported as 7500 nM.
Compound `Cn1cc2cc(/N=c3\[nH]c(=O)n(Cc4cnn[nH]4)c(=O)n3Cc3cc(F)c(F)cc3F)c(Cl)cc2n1` has a Cmax [22] of 6270 ng/mL, a Tmax [23] of 1 h and a bioavailability [24] of 88.1%. It also gave a half-life [25] of 2.51 h and an AUC(0-t) [26] of 32600 ng·h/mL.
